Blank lines part the entries; values can stand above or below the compound they belong to.
Key:
[1] = molecular target: T1, Tyrosinase (Homo sapiens, UniProt P14679); test: Inhibition of tyrosinase in human neonatal foreskin epidermal melanocyte cells using L-DOPA as substrate preincubated for 24 hrs followed by cell lysis and subsequent substrate addition and measured after 1 hr by ELISA; assay type: cell-based
T1 sequence (P14679 whole entry): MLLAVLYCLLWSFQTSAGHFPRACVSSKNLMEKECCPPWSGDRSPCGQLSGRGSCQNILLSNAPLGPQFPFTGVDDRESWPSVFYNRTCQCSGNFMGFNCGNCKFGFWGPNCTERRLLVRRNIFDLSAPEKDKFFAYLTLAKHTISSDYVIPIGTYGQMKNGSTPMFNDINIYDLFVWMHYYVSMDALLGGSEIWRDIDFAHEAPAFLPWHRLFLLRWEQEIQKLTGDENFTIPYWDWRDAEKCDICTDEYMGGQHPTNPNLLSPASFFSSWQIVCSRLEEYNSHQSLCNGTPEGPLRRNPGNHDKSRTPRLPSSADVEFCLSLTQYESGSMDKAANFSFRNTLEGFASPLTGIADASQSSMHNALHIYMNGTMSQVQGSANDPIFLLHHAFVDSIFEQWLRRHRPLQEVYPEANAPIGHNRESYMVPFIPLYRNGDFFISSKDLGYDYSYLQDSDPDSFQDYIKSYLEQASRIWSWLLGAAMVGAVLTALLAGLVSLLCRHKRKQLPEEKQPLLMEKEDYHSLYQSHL

[2] = molecular target: T1, Tyrosinase; test: Inhibition of human tyrosinase using L- DOPA as substrate by MBTH based assay
[3] = molecular target: T1, Tyrosinase; test: Inhibition of human tyrosinase expressed in HEK293 cells using L-tyrosine as substrate and DOPA as cofactor by indirect spectrophotometric method; assay type: cell-based
[4] = molecular target: T1, Tyrosinase; test: Inhibition of human HMV-II cell derived tyrosinase using DOPA as substrate incubated for 5 mins by light absorbance method; parameters: species or system HMV-2 cell line
[5] = molecular target: T1, Tyrosinase; test: biochemical
Description: Inhibition of human His-tagged tyrosinase expressed in HEK 293 cells using L-DOPA as substrate by MBTH based assay

[6] = molecular target: T2, Mushroom tyrosinase (Agaricus bisporus, UniProt O42713+Q00024+C7FF04+C7FF05); test: Inhibition of mushroom tyrosinase using L-tyrosine as substrate by spectrophotometric method
[7] = molecular target: T1, Tyrosinase; test: Inhibition of human His-tagged tyrosinase expressed in HEK 293 cells using L-DOPA as substrate by Lineweaver-Burk plot analysis; parameters: species or system HEK293
[8] = molecular target: T1, Tyrosinase; test: Inhibition of human HMV-II cell derived tyrosinase using L-DOPA as substrate by light absorbance method; assay type: cell-based, HMV-2 cell line
[9] = molecular target: T1, Tyrosinase; test: Inhibition of human tyrosinase expressed in human SKMEL188 cell lysate using L- DOPA as substrate incubated for 8 hrs; assay type: subcellular, SK-MEL-188
[10] = molecular target: T1, Tyrosinase; test: Inhibition of human tyrosinase expressed in Escherichia coli
[11] = molecular target: T2, Mushroom tyrosinase; test: Inhibition of mushroom tyrosinase
[12] = molecular target: T1, Tyrosinase; test: Inhibition of human tyrosinase expressed in HEK293 cells; assay type: cell-based
[13] = molecular target: T1, Tyrosinase; test: Inhibition of tyrosinase in human neonatal foreskin epidermal melanocyte cells using L-tyrosine and L-DOPA as substrate preincubated for 2 days followed by cell lysis and subsequent substrate addition and measured after 3 hr by spectrophotometric method; assay type: cell-based
[14] = molecular target: T1, Tyrosinase; test: Inhibition of tyrosinase in human melanocyte cells using L-DOPA as substrate by absorbance method; assay type: cell-based
[15] = molecular target: T1, Tyrosinase; test: Inhibition of tyrosinase in human melanocytes using L-[3,5-3H]-tyrosine as substrate incubated for 1 to 3 days by liquid scintillation counting method; assay type: cell-based, Melanocyte
[16] = molecular target: T1, Tyrosinase; test: Inhibition of tyrosinase in neonatal human epidermal melanocytes; parameters: species or system Melanocyte
[17] = molecular target: T1, Tyrosinase; test: Mixed inhibition of recombinant human tyrosinase expressed in baculovirus infected sf9 cells using L-DOPA as substrate by double-reciprocal plot analysis
[18] = molecular target: T2, Mushroom tyrosinase
Description: Competitive inhibition of White button mushroom tyrosinase using L-DOPA as substrate by Lineweaver-Burk plot

IC50 [1]: 32 µM
SMILES: O=C(CCc1ccc(O)c(O)c1)c1c(O)cc(O)cc1O

IC50 [4]: 22 µM
SMILES: Oc1ccc2cc[nH]c2c1

IC50 [9]: 2 µM
SMILES: N[C@H](Cc1ccccc1)C(=O)O[C@H]1CC[C@H](c2ccc(O)cc2O)CC1

IC50 [11]: 0.24 µM
SMILES: COc1ccc(CCCc2ccc(O)cc2O)c(OC)c1C

IC50 [2]: 3.2 µM
SMILES: CC(=O)Nc1nc(-c2ccc(O)cc2O)cs1

IC50 [12]: 10 µM
SMILES: O=C(/C=C/c1ccc(O)cc1)OC1=C(O)C(=O)O[C@@H]1[C@H](O)CO

IC50 [2]: 51 µM
SMILES: Nc1nc(-c2ccc(O)cc2O)cs1

IC50 [2]: 2.6 µM
SMILES: O=C(O)c1ccc(Nc2nc(-c3ccc(O)cc3O)cs2)cc1

IC50 [14]: 5 µM
SMILES: COc1cc(/C=C/C(=O)CC(=O)/C=C/c2ccc(O)c(OC)c2)ccc1O [CURCUMIN]

IC50 [2]: 1.6 µM
SMILES: O=C(Nc1nc(-c2ccc(O)cc2O)cs1)c1ccc(CO)cc1

IC50 [2]: 3.2 µM
SMILES: Oc1ccc(-c2csc(Nc3ncccn3)n2)c(O)c1

IC50 [16]: 50 µM
SMILES: COc1cc(/C=C/C(=O)NCCc2ccc(O)c(O)c2)ccc1O [N-TRANS-FERULOYLDOPAMINE]

IC50 [2]: 1.4 µM
SMILES: CC(C)(C)C(=O)Nc1nc(-c2ccc(O)cc2O)cs1

IC50 [5]: 131 µM
IC50 [6]: 0.3 µM
Ki [7]: 24 µM
SMILES: CC(c1ccccc1)c1ccc(O)cc1O (configuration not stated)

IC50 [12]: 40 µM
SMILES: O=C(/C=C/c1ccc(O)cc1)OC1=C(O)[C@@H]([C@H](O)CO)OC1=O

IC50 [2]: 2.5 µM
SMILES: O=C(Nc1nc(-c2ccc(O)cc2O)cs1)c1ccccc1

IC50 [12]: 9 µM
SMILES: Oc1ccc(/C=C/c2cc(O)cc(O)c2)cc1 [RESVERATROL]

IC50 [2]: 4.6 µM
SMILES: O=C(Nc1nc(-c2ccc(O)cc2O)cs1)C1CCCCC1

IC50 [5]: 1.1 µM
Ki [7]: 0.25 µM
SMILES: CC(C)C(=O)Nc1nc(-c2ccc(O)cc2O)cs1

IC50 [12]: 2 µM
IC50 [16]: 2 µM
SMILES: O=C(O)/C=C/c1ccc(O)cc1 [COUMARIC ACID]

More lines, now with the values behind:

SMILES: CSCc1cc(=O)c(O)co1
Ki [2]: 46 µM

SMILES: COc1cc(/C=C\C(=O)NCCCCNC(=O)/C=C/c2ccc(O)c(OC)c2)ccc1O
IC50 [1]: 85 µM

SMILES: O=c1cc(-c2ccc(O)c(O)c2)oc2cc(O)cc(O)c12 [LUTEOLIN]
IC50 [3]: 60 µM

SMILES: CCCCCCc1ccc(O)cc1O [HEXYLRESORCINOL]
IC50 [5]: 94 µM
IC50 [6]: 1.2 µM
Ki [7]: 39 µM

SMILES: CCCSCc1cc(=O)c(O)co1
Ki [2]: 27 µM

SMILES: COC1=CC(=C/C=C/C=C2C=C(OC)C(=O)C(OC)=C2)C=C(OC)C1=O
IC50 [8]: 2.5 µM

SMILES: CCCn1cc(O)c(=O)cc1C
Ki [2]: 75 µM

SMILES: O=c1oc2ccccc2cc1O [3-HYDROXYCOUMARIN]
Ki [10]: 3.4 µM

SMILES: O=c1cc(-c2ccc(O)c(O)c2)oc2cc(OS(=O)(=O)O)cc(O)c12
IC50 [3]: 16 µM

SMILES: C=C1OC(=O)/C(=C\CCCCCCCCCCCCC)[C@H]1O
IC50 [13]: 1 µM

SMILES: CCSCc1cc(=O)c(O)co1
Ki [2]: 19 µM

SMILES: CC(C)(C)c1ccc(O)cc1
IC50 [15]: 10 µM

SMILES: CCCCn1cc(O)c(=O)cc1C
Ki [2]: 100 µM

SMILES: CCCCCSCc1cc(=O)c(O)co1
Ki [2]: 46 µM

SMILES: CCCCc1ccc(O)cc1O [RUCINOL]
IC50 [11]: 0.6 µM
Ki [7]: 9.1 µM

SMILES: CC(C)SCc1cc(=O)c(O)co1
Ki [2]: 50 µM

SMILES: Oc1cccc(O)c1 [RESORCINOL]
IC50 [5]: > 3000 µM

SMILES: O=C(O)c1ccccc1 [BENZOIC ACID]
Ki [17]: 520 µM
Ki [18]: 4.6 µM

SMILES: CCCCCCCCCCCCC/C=C1\C(=O)O[C@@](C)(OC)[C@@H]1O [SUBAMOLIDE A]
IC50 [13]: 1 µM

Reference: ChEMBL document CHEMBL4715852, “Advances in the Design of Genuine Human Tyrosinase Inhibitors for Targeting Melanogenesis and Related Pigmentations” (J Med Chem, 2020)
